The text below walks through data of paper PMC12040169 (PLOS Biology, 2025).

By viability is commonly meant a read-out of living cells in per cent, often relative to untreated cells.

This series can be described thus: in vitro. Particulars: human, hela cells, % viability.

On to `CCCCOc1ccccc1NC(=O)CC1NCCNC1=O` (stereo not drawn) [CBK269299], for which the viability at 28.5 h, 10 µM stood at 94.7%. In the case of `O=S(=O)(N1CCOCC1)N1CCN(CC(O)COc2ccc(-c3ccccc3)cc2)CC1` (stereo not drawn) [CBK269301] it was 106%; in that of `CC(=O)Nc1ccc(Oc2c(F)c(F)c(/C=C/CN3CCOCC3)c(F)c2F)cc1` [CBK269302C], 89%; in that of `O=[N+]([O-])c1ccc(S(=O)(=O)N2CCC3(CC2)OCCO3)cc1` [CBK269303], 97.5%. The value for `CC(C)(C)C(=O)NC(=S)NNC(=O)c1ccncc1` [CBK269304] was 90.6%; that for `O=C(O)c1cccnc1SC1CC(=O)N(c2cccc(Cl)c2Cl)C1=O` (stereo not drawn) [CBK269306] was 110%; that for `COC(=O)c1c(NC(=O)CC2Nc3ccccc3NC2=O)sc2c1CCC2` (stereo not drawn) [CBK269307A] was 93.7%. In the case of `CS(=O)(=O)N1CCCC(C(=O)NCc2ccccn2)C1` (stereo not drawn) [CBK269308] it was 101%.

Regarding `CCOc1cc(CNCCO)c(Cl)cc1OC` [CBK269309C], the viability at 28.5 h, 10 µM was 102%. The value for `CNc1cc(N2CCN(S(=O)(=O)N(C)C)CC2)ccc1[N+](=O)[O-]` [CBK269311] was 89.8%; that for `Cc1ccc(-c2noc(CN(C(=O)CCc3ccccc3)C(C)C)n2)cc1` [CBK269313] was 99.3%. In the case of `Cc1ccc(SCc2ccc(C(=O)NCCN3CCOCC3)cc2)cc1` [CBK269314], the viability at 28.5 h, 10 µM stood at 98.7%.

As for `CC(Sc1ccc(Cl)cc1)C(=O)NCCN1CCOCC1` (stereo not drawn) [CBK269316], the viability at 28.5 h, 10 µM is 111%.

For `CN(C)CCCNc1oc(/C=C/c2cccs2)nc1C#N` [CBK269317], the viability at 28.5 h, 10 µM stood at 86.7%.

In the case of `CCN(CC)CCN1C(=O)C(O)=C(C(=O)c2cccs2)C1c1ccccn1` (stereo not drawn) [CBK269319], the viability at 28.5 h, 10 µM stood at 76.3%.

Consider `NS(=O)(=O)c1ccc(NC(=O)CCSc2ccc(Cl)cc2)cc1` [CBK269322], for which the viability at 28.5 h, 10 µM was found to be 94.4%.

`Nc1c(C(=O)NCc2ccco2)c2nc3ccccc3nc2n1C1CCCC1` [CBK269323]: the viability at 28.5 h, 10 µM turned out to be 106%.

As for `COCCN(Cc1cc2ccc(C)cc2nc1O)C(=O)c1cccs1` [CBK269324], the viability at 28.5 h, 10 µM came to 100%. In the case of `CCOC(=O)N1CCN(Cc2nc3c(c(=O)n(C)c(=O)n3C)n2Cc2ccccc2C)CC1` [CBK269325] it was 91.8%; in that of `Cc1ccc(CSCC(=O)NCCN2CCOCC2)cc1` [CBK269327], 90.4%. The value for `CC(Sc1ccccc1)C(=O)NCCN1CCOCC1` (stereo not drawn) [CBK269332] was 95.9%. The value for `Cc1ccc(OCCSc2nnc(N)[nH]2)cc1` [CBK269334] was 98.9%. Regarding `Cc1ccc(C(=O)CC(C(=O)O)c2c(C)[nH]c3ccccc23)cc1` (stereo not drawn) [CBK269337], the viability at 28.5 h, 10 µM was found to be 96.1%. Take `COC(=O)C(CC(=O)c1ccc(Br)cc1)n1cccn1` (stereo not drawn) [CBK269338]: the viability at 28.5 h, 10 µM was 104%. In the case of `COc1ccccc1CC(=O)N(Cc1nc(-c2cccc(C)c2)no1)C(C)C` [CBK269345] it was 95.7%; in that of `O=C(CSc1nnc(-c2ccncc2)n1Cc1ccccc1)Nc1ccc(Cl)cc1` [CBK269346], 97.3%; in that of `COc1ccc(S(=O)(=O)NC(C)C(=O)NCc2ccncc2)cc1C` (stereo not drawn) [CBK269347], 101%. The value for `CC1CN(Cc2nc3c(c(=O)n(C)c(=O)n3C)n2CCCc2ccccc2)CC(C)O1` (stereo not drawn) [CBK269349] was 91.7%. The value for `O=C(Nc1ccccc1C(=O)NCc1ccccc1)c1cccc(F)c1` [CBK269351] was 88.9%; that for `O=C(CCSc1ccc(Cl)cc1)NCCN1CCOCC1` [CBK269352] was 98.2%; that for `Cc1ccnc(Sc2nc3c(c(=O)[nH]c(=O)n3C)n2CCCc2ccccc2)n1` [CBK269353] was 79.4%.

`CCOC(=O)c1cccc(NC(=O)CSc2nc3cccnc3[nH]2)c1` [CBK269354]: the viability at 28.5 h, 10 µM came to 95.1%.

For the compound `COc1ccc(C)cc1S(=O)(=O)N(CC(=O)N1CCN(C)CC1)c1cccc(C(F)(F)F)c1` [CBK269355], the viability at 28.5 h, 10 µM was 96.2%. The value for `COc1nc2ccccc2nc1CCC(=O)O` [CBK269356] was 89.1%; that for `OCCn1ncc2c(SC3CCCCC3)ncnc21` [CBK269358] was 87.8%; that for `N#Cc1c(NC(=O)C(=O)NCc2ccccn2)sc2c1CCCC2` [CBK269360] was 95.9%. The value for `O=S(=O)(Nc1cccnc1)N1CCOCC1` [CBK269362] was 97.9%. The value for `CCCn1c(CN2CCN(CCO)CC2)nc2ccccc21` [CBK269363] was 110%; that for `Cc1cccnc1NC(=O)c1ccc(N2CCN(C)CC2)c([N+](=O)[O-])c1` [CBK269366] was 95.4%.

Regarding `Cc1ccccc1OC(C)C(=O)Nc1ccc(S(=O)(=O)N2CCCC2)cc1` (stereo not drawn) [CBK269367], the viability at 28.5 h, 10 µM worked out at 89.7%.

On to `Cc1cccc(N2CCN(CC(=O)Nc3ccc(S(N)(=O)=O)cc3)CC2)c1C` [CBK269369], for which the viability at 28.5 h, 10 µM came out at 96.8%. The value for `O=S(=O)(N1CCCCC1)N1CCN(CC(O)COc2ccc(-c3ccccc3)cc2)CC1` (stereo not drawn) [CBK269370] was 94.9%; that for `Cc1cc(C)nc(-n2ncc3c2CC(c2cccs2)CC3=O)n1` (stereo not drawn) [CBK269371] was 107%.

For the compound `COc1ccc(/C=C/c2nc3ccccc3s2)cc1S(=O)(=O)N1CCOCC1` [CBK269373], the viability at 28.5 h, 10 µM was determined as 89.9%. The value for `C=CCn1c(CCCNC=O)nc2ccccc21` [CBK269375] was 94.2%; that for `Cc1ccc(N2C(=O)CC(Sc3ncccc3C(=O)O)C2=O)c(C)c1` (stereo not drawn) [CBK269377] was 91.9%; that for `C=CCNS(=O)(=O)c1ccc(NC(=O)Cc2cccc3ccccc23)cc1` [CBK269379] was 109%. The value for `O=C(O)c1cc(C(=O)O)n(Cc2ccccc2Cl)n1` [CBK269381] was 88.1%. As for `CCOC(=O)Cn1c(CN2CCCCC2C)nc2c1c(=O)n(C)c(=O)n2C` (stereo not drawn) [CBK269382], the viability at 28.5 h, 10 µM stood at 95.1%. The value for `Cc1nc(N)sc1-c1nnc(SC/C=C/c2ccccc2)n1C` [CBK269383] was 81.7%; that for `N#CC(C(=O)CN1CCN(Cc2ccccc2)CC1)c1ccccc1` (stereo not drawn) [CBK269386] was 99.6%; that for `O=C(Nc1cccc2ccccc12)C(c1ccccc1)N1CCOCC1` (stereo not drawn) [CBK269388] was 102%. For the compound `C=CCn1c(COc2cccc(Cl)c2)nnc1SCC(=O)O` [CBK269389], the viability at 28.5 h, 10 µM was determined as 90.2%. In the case of `O=C(Nc1ccccc1[N+](=O)[O-])C(c1ccccc1)N1CCOCC1` (stereo not drawn) [CBK269390] it was 94%; in that of `O=S(=O)(Nc1ccccn1)N1CCOCC1` [CBK269391], 86.9%. The value for `O=CNCCCc1nc2ccccc2n1CCc1ccccc1` [CBK269393] was 89.5%. In the case of `Cc1ccnc(SCCn2c(N(C)Cc3ccccc3)nc3c2c(=O)n(C)c(=O)n3C)n1` [CBK269394] it was 98.9%; in that of `COCCN(Cc1cc2cccc(C)c2nc1O)S(C)(=O)=O` [CBK269395], 99.9%. On to `CCCN1CCN(c2ncnc3sc(C4COc5ccccc5O4)cc23)CC1` (stereo not drawn) [CBK269396], for which the viability at 28.5 h, 10 µM is 98.1%. In the case of `COc1ccc(N2CCN(CC(=O)N3c4ccccc4Sc4ccccc43)CC2)cc1` [CBK269398] it was 89.1%; in that of `Cc1cc(C)n(-c2nc3ccccc3nc2N2CCN(S(=O)(=O)c3ccccc3)CC2)n1` [CBK269399], 79.9%; in that of `COC(=O)c1ccccc1NC(=O)CC1Sc2ccccc2NC1=O` (stereo not drawn) [CBK269400], 90.2%. The value for `COc1ccc(-c2coc3c(C)c4oc(=O)c(CC(=O)O)c(C)c4cc23)cc1` [CBK269403] was 105%; that for `O=C(CCNS(=O)(=O)c1ccc(Cl)cc1)N1CCN(Cc2ccccc2)CC1` [CBK269405] was 101%. In the case of `O=C(O)Cc1ccc(NC(=O)C2Cc3ccccc3C(=O)O2)cc1` (stereo not drawn) [CBK269406] it was 85.1%; in that of `O=C(COc1nc2cc3c(nc2o1)CCC3)c1ccccc1` [CBK269407], 75.5%; in that of `Cc1ccc2cc(CN(Cc3ccco3)S(C)(=O)=O)c(O)nc2c1` [CBK269409], 105%. Regarding `Cc1cc(OCC(=O)Nc2ccccc2N2CCN(S(C)(=O)=O)CC2)ccc1Cl` [CBK269410], the viability at 28.5 h, 10 µM stood at 103%. The value for `CC1Oc2ccccc2OC1C(=O)Nc1ccc([N+](=O)[O-])cc1Cl` (stereo not drawn) [CBK269412] was 85.8%; that for `CCN1CCN(Cc2nc3c([nH]2)c(=O)n(C)c(=O)n3C)CC1` [CBK269413] was 90.5%; that for `CN(C)CCCNc1ccc(C(F)(F)F)cn1` [CBK269414] was 86.2%. As for `O=C(CCCc1nc(-c2ccc(Cl)cc2)no1)NCc1cccnc1` [CBK269415], the viability at 28.5 h, 10 µM was determined as 90.4%. In the case of `Cc1ccc(S(=O)(=O)N2CCN(CCC(=O)O)CC2)cc1C` [CBK269416], the viability at 28.5 h, 10 µM is 93.3%. In the case of `Cc1ccc2nsnc2c1NC(=O)COc1ccccc1F` [CBK269420], the viability at 28.5 h, 10 µM came out at 105%. The value for `O=C(CS(=O)(=O)c1ccccc1)Nc1ccc(OCc2ccccc2)cc1` [CBK269421] was 98.4%; that for `CCN1CCN(CC(=O)C(C#N)c2ccccc2)CC1` (stereo not drawn) [CBK269423] was 92.8%. In the case of `O=S(=O)(c1ccccc1)N(Cc1cc2ccccc2nc1O)CC1CCCO1` (stereo not drawn) [CBK269424], the viability at 28.5 h, 10 µM is 93.3%.

`CCN(CC(=O)Nc1ccccc1OC)S(=O)(=O)c1ccccc1` [CBK269428]: the viability at 28.5 h, 10 µM was 97.1%. Consider `O=C(O)COc1noc2nc3c(cc12)CCCCC3` [CBK269429], for which the viability at 28.5 h, 10 µM was determined as 97.7%. The value for `Cc1ccc(-c2noc(CN(C(=O)c3ccc(Br)o3)C(C)C)n2)cc1` [CBK269440] was 83.2%.

`COc1ccc(S(=O)(=O)NC(C)C(=O)NCc2ccncc2)cc1` (stereo not drawn) [CBK269441]: the viability at 28.5 h, 10 µM stood at 107%.
